This experiment has as its target T1, SMARCA2 (Homo sapiens, UniProt P51531).
T1 construct: made in house; host or cells: T7 phage grown in E. coli host derived from BL21
Briefly: Bromodomain Binding Assay. The following applies: 10 μM Compound 074, read-out: Bromodomain Binding % of Control.

T1 sequence (P51531 1378-1506 limits assumed): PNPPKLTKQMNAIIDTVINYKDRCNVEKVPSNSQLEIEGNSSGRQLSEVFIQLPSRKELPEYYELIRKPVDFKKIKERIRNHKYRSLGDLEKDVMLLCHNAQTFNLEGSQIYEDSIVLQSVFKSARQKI

In the case of `Cc1sc2c(c1C)C(c1ccc(Cl)cc1)=N[C@@H](CC(=O)N1CCC(CN3CCN(Cc4ccc(-n5c(O)nnc5-c5cc(C(C)C)c(O)cc5O)cc4)CC3)CC1)c1nnc(C)n1-2.Cl` [Compound 74, (S)-2-(4-(4-chlorophenyl)-2,3,9-trimethyl-6H-thieno[3,2-f][1,2,4]triazolo[4,3-a][1,4]diazepin-6-yl)-1-(4-((4-(4-(3-(2,4-dihydroxy-5-isopropylphenyl)-5-hydroxy-4H-1,2,4-triazol-4-yl)benzyl)piperazin-1-yl)methyl)piperidin-1-yl)ethan-1-one hydrochloride], the remaining activity at 10 µM was more than 75%.
